pKi: −log10 of the molar value. Square brackets hold non-standard residues; d marks the D form. Peptide text beside a SMILES is read from it. * marks the point of attachment. Phe(4-Cl) = N[C@@H](Cc1ccc(Cl)cc1)C(=O)O; hArg = N=C(N)NCCCC[C@H](N)C(=O)O; X1 = O=C(Cc1c[nH]c2ccccc12)*; Nle = CCCC[C@H](N)C(=O)O; Abu = CC[C@H](N)C(=O)O; PhAc = O=C(Cc1ccccc1)*
Legend:
[1] = target: T1, rat pituitary GH-RH receptors (Rattus norvegicus, UniProt Q02644); assay: GH-RH radioreceptor binding assay, rat anterior pituitary membrane homogenates; details: for pKi: competition with [His1,125I-Tyr10,Nle27]hGH-RH(1–32)NH2; for R.A. (relative affinity compared to Standard antagonist): ratio of Ki values
T1 construct: from tissue; host or cells: anterior pituitary of male Sprague-Dawley rats, crude membrane homogenates
T1 sequence (Q02644 23-464): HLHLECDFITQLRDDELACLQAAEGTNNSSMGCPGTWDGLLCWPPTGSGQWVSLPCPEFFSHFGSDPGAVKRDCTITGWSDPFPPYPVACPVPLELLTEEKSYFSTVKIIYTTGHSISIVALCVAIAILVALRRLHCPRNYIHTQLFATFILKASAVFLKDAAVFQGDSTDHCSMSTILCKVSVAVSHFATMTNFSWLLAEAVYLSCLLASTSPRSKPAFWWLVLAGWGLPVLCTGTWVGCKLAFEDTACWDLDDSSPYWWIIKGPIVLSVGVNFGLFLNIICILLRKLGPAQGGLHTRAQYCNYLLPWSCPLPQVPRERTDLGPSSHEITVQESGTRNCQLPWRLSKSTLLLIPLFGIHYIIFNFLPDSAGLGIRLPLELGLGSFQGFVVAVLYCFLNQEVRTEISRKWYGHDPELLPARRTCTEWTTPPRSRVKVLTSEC
Protocol: GH-RH Binding Assay. A sensitive radioreceptor binding assay was developed to determine the binding characteristics of the antagonists of GH-RH (G. Halmos, A. V. Schally et al., Receptor 3, 87–97, 1993), hereby incorporated by reference. The assay is based on binding of labelled [His^1,Nle^27]hGH-RH(1–32)NH2 to rat anterior pituitary membrane homogenates. Iodinated derivatives of [His^1,Nle^27]hGH-RH(1–32)NH2 are prepared by the chloramine-T method (F. C. Greenwood et al., Biochemistry 89:114–123, 1963), hereby incorporated by reference. Pituitaries from male Sprague-Dawley rats (250–300 g) are used to prepare crude membranes. For saturation binding analyses, membrane homogenates are incubated with at least 6 concentrations of [His^1,^125I-Tyr^10,Nle^27]hGH-RH(1–32) NH2, ranging from 0.005 to 0.35 nM in the presence or absence of excess unlabelled peptide (1 μM).
The pellet is counted for radioactivity in a γ-counter. The affinities of the antagonist peptides tested to rat pituitary GH-RH receptors are determined in competitive binding experiments. The final binding affinities are estimated by Ki (dissociation constant of the inhibitor-receptor complex) and are determined by the Ligand PC and McPherson computer programs of Munson and Rodbard (P. J. Munson and D. Rodbard, Anal. Biochem. 107. 220–239, 1980). Relative affinities compared to [Ac-Tyr^1,D-Arg^2]hGH-RH(1–29)NH2, the Standard antagonist, are calculated as the […].

[2] = test system: GH release stimulated by hGH-RH(1–29)NH2; assay: In vivo inhibition of serum GH response in rats; parameters: species or system rat; details: for Inhibition of the GH release stimulated by hGH-RH(1–29)NH2 (in words): 80 μg/kg i.v., rats
Protocol: GH-RH antagonistic effect of the analogs was tested on young male Sprague-Dawley rats (200–250 g). In each experiment, 5 groups of 7 animals each were used. The compounds (80 μg/kg) and GH-RH(1–29)NH2 (3 μg/kg) were dissolved in 5.5% mannitol and given intravenously to the jugular vein of the rats under Nembutal anesthesia. The time elapsed between the administrations of the antagonist and GH-RH varied between groups, according to the following schedule. The first group of animals received GH-RH injection 5 min after the administration of the antagonist; for the second, third and fourth group of animals, the time interval elapsed between the injection of the antagonist and that of GH-RH was 15, 30, and 60 min, respectively. The control group was first injected with the solvent alone instead of the antagonist, followed by a GH-RH injection 5 min later.
0.4 mL blood samples were taken for GH RIA before the administration of the antagonist (“blood0”), and 5 min after the injection of GH-RH (“blood1”). The GH response in each group was calculated as rGH=(GHblood1/GHblood0), mean±S.E.M. of the individual differences. Relative inhibition of GH response (%) in each group treated was calculated as […].

[3] = test system: hGH-RH(1–29)NH2 induced GH release; assay: Inhibition of GH release in superfused rat pituitary system; type: cell-based; details: antagonist 30 nM; for Inhibition of GH release (%) 30 min: 1 nM hGH-RH(1–29)NH2 30 min later; for Inhibition of GH release (%) 60 min: 1 nM hGH-RH(1–29)NH2 60 min later; for Inhibition of GH release (%) 90 min: 1 nM hGH-RH(1–29)NH2 90 min later; for Inhibition of GH release (%) 120 min: 1 nM hGH-RH(1–29)NH2 120 min later; for Inhibition of GH release (%) 0 min: 1 nM hGH-RH(1–29)NH2 at 0 min
Protocol: Superfused Rat Pituitary System.
The analogs were tested in vitro in a test described earlier (S. Vigh and A. V. Schally, Peptides 5:241–347, 1984) with modification (Z. Rekasi and A. V. Schally, P.N.A.S. 90:2146–2149, 1993).
Briefly, the cells are preincubated with peptides for 9 minutes (3 mL) at various concentrations. Immediately after the incubation, 1 nM hGH-RH(1–29)NH2 is administered for 3 minutes (1 mL) [0 minute response]. To check the duration of the antagonistic effect of the analogue, 1 nM hGH-RH(1–29)NH2 is applied 30, 60, 90, and 120 minutes later for 3 minutes [30, 60, 90, 120 min responses]. Net integral values of the GH responses are evaluated. GH responses are compared to and expressed as percent of the original GH response induced by 1 nM GH-RH(1–29)NH2. The effect of the new antagonists are compared to that of [Ac-Tyr^1,D-Arg^2]hGH-RH(1–29)NH2, the “Standard antagonist”.
Growth Hormone Radio-immunoassay.
Rat GH levels in aliquots of undiluted and diluted superfusion samples were measured by double-antibody radioimmunoassay using materials supplied by the National Hormone and Pituitary Program, Baltimore, Md. The results of RIA were analyzed with a computer program developed in our institute (V. Csernus and A. V. Schally, in Neuroendocrine Research Methods, Harwood Academic (Greenstein, B. D. ed., London, pp. 71–109, 1991), hereby incorporated by reference. Inter-assay variation was less than 15% and intra-assay variation was less than 10%.

[4] = antagonist 80 μg/kg i.v. 5 min before GH-RH
[5] = antagonist 80 μg/kg i.v. 15 min before GH-RH
[6] = antagonist 80 μg/kg i.v. 15 min before GH-RH 3 μg/kg
[7] = antagonist 80 μg/kg i.v. 30 min before GH-RH
[8] = antagonist 80 μg/kg i.v. 30 min before GH-RH 3 μg/kg
[9] = antagonist 80 μg/kg i.v. 60 min before GH-RH
[10] = antagonist 80 μg/kg i.v. 60 min before GH-RH 3 μg/kg
[11] = rGH=GHblood1/GHblood0, antagonist 80 μg/kg i.v. 5 min before GH-RH 3 μg/kg

SMILES | pKi [1] | R.A. (relative affinity compared to Standard antagonist) [1] | Inhibition of the GH release stimulated by hGH-RH(1–29)NH2 (in words) [2] | Relative inhibition % of GH response [2, 4] [%] | Relative inhibition % of GH response [2, 5] [%] | GH response mean ± S.E.M. [2, 6] | Relative inhibition % of GH response [2, 7] [%] | GH response mean ± S.E.M. [2, 8] | Relative inhibition % of GH response [2, 9] [%] | GH response mean ± S.E.M. [2, 10] | GH response mean ± S.E.M. [2, 11] | Inhibition of GH release (%) 30 min [3] [%] | Inhibition of GH release (%) 60 min [3] [%] | Inhibition of GH release (%) 90 min [3] [%] | Inhibition of GH release (%) 120 min [3] [%] | Inhibition of GH release (%) 0 min [3] [%]
CCCC[C@H](NC(=O)[C@@H](NC(=O)[C@H](CC(=O)O)NC(=O)[C@H](CCC(N)=O)NC(=O)[C@H](CC(C)C)NC(=O)[C@H](CC(C)C)NC(=O)[C@H](CCCCN)NC(=O)[C@H](CCCNC(=N)N)NC(=O)[C@H](C)NC(=O)[C@H](CO)NC(=O)[C@H](CC(C)C)NC(=O)[C@H](CCC(N)=O)NC(=O)[C@H](CC)NC(=O)[C@H](CC(C)C)NC(=O)[C@@H](NC(=O)[C@H](CCCCN)NC(=O)[C@H](CCCNC(=N)N)NC(=O)[C@H](Cc1ccc(O)cc1)NC(=O)[C@H](CCCNC(=N)N)NC(=O)[C@H](CC(N)=O)NC(=O)[C@@H](NC(=O)[C@H](Cc1ccc(Cl)cc1)NC(=O)[C@@H](NC(=O)[C@H](C)NC(=O)[C@H](CC(=O)O)NC(=O)[C@@H](CCCNC(=N)N)NC(=O)[C@H](Cc1ccc(O)cc1)NC(=O)Cc1c[nH]c2ccccc12)[C@@H](C)CC)[C@@H](C)O)C(C)C)[C@@H](C)CC)C(=O)N[C@H](CCCNC(=N)N)C(=O)N[C@@H](CCCCNC(=N)N)C(N)=O [Peptide 2, [IndAc^0, D-Arg^2, Phe(pCl)^6, Arg^9, Abu^15, Nle^27, D-Arg^28, Har^29]hGH-RH(1–29)NH2] (X1-Y[dR]DAI[Phe(4-Cl)]TNRYRKVL[Abu]QLSARKLLQDI[Nle][dR][hArg]-NH2) | 10.34 | 64 | strong and long-lasting inhibition | 91 | 45 | 3.45 ± 0.13 | 41 | 3.64 ± 0.71 | 2 | 5.41 ± 1.35 | 1.40 ± 0.29 | 100 | 100 | 100 | 91 | 100
CCCC[C@H](NC(=O)[C@@H](NC(=O)[C@H](CC(=O)O)NC(=O)[C@H](CCC(N)=O)NC(=O)[C@H](CC(C)C)NC(=O)[C@H](CC(C)C)NC(=O)[C@H](CCCCN)NC(=O)[C@H](CCCNC(=N)N)NC(=O)[C@H](C)NC(=O)[C@H](CO)NC(=O)[C@H](CC(C)C)NC(=O)[C@H](CCC(N)=O)NC(=O)[C@H](CC)NC(=O)[C@H](CC(C)C)NC(=O)[C@@H](NC(=O)[C@H](CCCCN)NC(=O)[C@H](CCCNC(=N)N)NC(=O)[C@H](Cc1ccc(O)cc1)NC(=O)[C@H](CCCCNC(=N)N)NC(=O)[C@H](CC(N)=O)NC(=O)[C@@H](NC(=O)[C@H](Cc1ccc(Cl)cc1)NC(=O)[C@@H](NC(=O)[C@H](C)NC(=O)[C@H](CC(=O)O)NC(=O)[C@@H](CCCNC(=N)N)NC(=O)[C@H](Cc1ccc(O)cc1)NC(=O)Cc1ccccc1)[C@@H](C)CC)[C@@H](C)O)C(C)C)[C@@H](C)CC)C(=O)N[C@H](CCCNC(=N)N)C(=O)N[C@@H](CCCCNC(=N)N)C(N)=O [Peptide 4, [PhAc^0, D-Arg^2, Phe(pCl)^6, Har^9, Abu^15, Nle^27, D-Arg^28, Har^29]hGH-RH(1–29)NH2] (PhAc-Y[dR]DAI[Phe(4-Cl)]TN[hArg]YRKVL[Abu]QLSARKLLQDI[Nle][dR][hArg]-NH2) | 10.06 | 34 | strong and long-lasting inhibition | 82 | 43 | 7.73 ± 1.12 | 7 | 12.00 ± 2.54 | 8 | 11.88 ± 0.90 | 3.08 ± 0.58 | 86 | 80 | 79 | 68 | 83

— patent publication US7026281B1, “Antagonistic analogs of GH-RH inhibiting IGF-I and -II” (The Administrators of the Tulane Educational Fund, priority 1998, dated 2006)
